From patent publication US8298993B2, “Herbicidal composition and method of use thereof” (Syngenta Crop Protection LLC, priority 2006, dated 2012)

Experiments:
large crabgrass = experiment: Control of large crabgrass, pre-emergent application of the herbicides; format: in vivo, Digitaria sanguinalis; details: s-metolachlor 5 g ai/ha in the absence of mesotrione
[1] = system: white clover (Trifolium repens); experiment: Glasshouse trial, control of white clover, post-emergence application; format: in vivo; details: 16 DAT
Experimental: A glasshouse trial was carried out. White clover seeds were sown into standard glasshouse potting mix (1:1 v/v Promix:Vero sand soil) contained in 10 cm square plastic pots. Treatments were replicated three times. Mesotrione (in the form Callisto®480SE) was applied post-emergence to white clover (Trifolium repens) at either 50 g ai/ha or 100 g ai/ha with or without s-metolachlor (in the form Dual Magnum®). […] The adjuvant system was X-77 at 0.1% v/v in deionised water. 200 liters of herbicide/adjuvant system was used per hectare. General weed control was evaluated at 10 and 16 days after treatment (DAT). It is noted that all herbicides were applied at reduced field rates because herbicide effects are magnified in a glasshouse environment. Rates were chosen to give a 50 to 70% level of control with herbicides applied alone as this allows for detection of any synergistic effect when tank mixtures are used. […] The results were evaluated using the Colby formula. The expected result for (A+B) is (A+B)−(A×B/100) where A and B are the ‘observed’ results for A and B on their own.

[2] = system: large crabgrass (Digitaria sanguinalis); experiment: Glasshouse trial, control of large crabgrass, post-emergence application; format: in vivo
Experimental: A glasshouse trial was carried out. Large crabgrass seeds were sown into standard glasshouse potting mix (1:1 v/v Promix:Vero sand soil) contained in 10 cm square plastic pots. Treatments were replicated three times. Mesotrione (in the form Callisto® 480SE) was applied post-emergence to large crabgrass (Digitaria sanguinalis) at either 12 g ai/ha or 24 g ai/ha with or without s-metolachlor (in the form Dual Magnum®). When used, s-metolachlor was applied at a rate of 500 g ai/ha or 1000 g ai/ha. The adjuvant system was X-77 at 0.1% v/v in deionised water. 200 liters of herbicide/adjuvant system was used per hectare. General weed control was evaluated at 7 and 14 days after treatment (DAT). It is noted that all herbicides were applied at reduced field rates because herbicide effects are magnified in a glasshouse environment. Rates were chosen to give a 50 to 70% level of control with herbicides applied alone as this allows for detection of any synergistic effect when tank mixtures are used. […] The results were evaluated using the Colby formula. The expected result for (A+B) is (A+B)−(A×B/100) where A and B are the ‘observed’ results for A and B on their own.

Compound	control of large crabgrass, herbicide alone (large crabgrass)	control of white clover, herbicide alone ([1]; s-metolachlor on its own at 500 g ai/ha)	control of large crabgrass, herbicide alone ([2]; first experiment, s-metolachlor on its own (500 or 1000 g ai/ha), post-emergence, 14 DAT)	control of large crabgrass, herbicide alone ([2]; repeat experiment, s-metolachlor 500 g ai/ha in the absence of mesotrione, 14DAT)	control of large crabgrass, herbicide alone ([2]; repeat experiment, s-metolachlor 1000 g ai/ha in the absence of mesotrione, 14DAT)	control of white clover, herbicide alone ([1]; mesotrione alone at the lower rate (50 g ai/ha))	control of large crabgrass, herbicide alone ([2]; mesotrione alone, post-emergence, 7 DAT)
s-metolachlor	95%	3%	no control	7%	7%	–	–
CS(=O)(=O)c1ccc(C(=O)C2C(=O)CCCC2=O)c([N+](=O)[O-])c1 [mesotrione, 2-(2′-nitro-4′-methylsulphonylbenzoyl)-1,3-cyclohexanedione]	–	–	–	–	–	32%	relatively high
